In ChEMBL document CHEMBL3272295, “Drugs derived from cannabinoids. 5. delta6a,10a-Tetrahydrocannabinol and heterocyclic analogs containing aromatic side chains” (J Med Chem, 1976):

Key:
Rattus norvegicus [1] = test: Antipsychotic activity in rat assessed as reduction of methamphetamine-induced hyperactivity at 2 mg/kg, po administered prior to methamphetamine challenge relative to vehicle-treated control; assay type: functional; design: scale not given: the % may be the effect or the level left
Rattus norvegicus [2] = test: Antidiarrheal activity in Charles River rat assessed as inhibition of castor oil-induced diarrhea by measuring protected animals at 0.1 mg/kg, po administered 1 hr prior to castor oil challenge measured after 1 hr relative to vehicle-treated control; assay type: functional
Rattus norvegicus [3] = test: Antisecretory activity in Sprague-Dawley rat assessed as decrease in acidity at 50 mg/kg, po administered 30 mins prior to pylorus ligation measured after 4 hrs relative to control; assay type: functional; design: scale not given: the % may be the effect or the level left
Rattus norvegicus [4] = test: Antihypertensive activity in spontaneously hypertensive rat model assessed as reduction in blood pressure at 1 mg/kg, po after 3 hrs; assay type: functional; design: scale not given: the % may be the effect or the level left
[5] = Acute toxicity in po dosed mouse; assay type: organism-based; details: in vivo
Rattus norvegicus [6] = test: Antisecretory activity in Sprague-Dawley rat assessed as decrease in acid output at 50 mg/kg, po administered 30 mins prior to pylorus ligation measured after 4 hrs relative to control; assay type: functional; design: scale not given: the % may be the effect or the level left
Canis familiaris = test: Antianxiety activity in po dosed dog assessed as ataxia administered as single dose measured up to 24 hrs; assay type: functional; details: Canis lupus familiaris, read-out: MED
Rattus norvegicus [7] = test: Antisecretory activity in Sprague-Dawley rat assessed as decrease in pepsin concentration at 50 mg/kg, po administered 30 mins prior to pylorus ligation measured after 4 hrs relative to control; assay type: functional; design: scale not given: the % may be the effect or the level left
Rattus norvegicus [8] = test: Antipsychotic activity in rat assessed as reduction of methamphetamine-induced hyperactivity at 5 mg/kg, po administered prior to methamphetamine challenge relative to vehicle-treated control; assay type: functional; design: scale not given: the % may be the effect or the level left
Rattus norvegicus [9] = test: Antianxiety activity in Long-Evans rat assessed as reduction in motor activity at 5 mg/kg, po after 2 hrs relative to vehicle-treated control; assay type: functional; design: scale not given: the % may be the effect or the level left
Mus musculus [10] = test: Antianxiety activity in albino BALB/cJ mouse assessed as reduction in footshock-induced fighting behavior at 5 mg/kg, po after 30 to 90 mins; assay type: functional; design: scale not given: the % may be the effect or the level left
Rattus norvegicus [11] = test: Antidiarrheal activity in Charles River rat assessed as inhibition of castor oil-induced diarrhea by measuring protected animals at 0.05 mg/kg, po administered 1 hr prior to castor oil challenge measured after 1 hr relative to vehicle-treated control; assay type: functional
Mus musculus [12] = test: Analgesic activity in po dosed mouse assessed as inhibition of acetic acid-induced writhing administered 30 mins prior to acetic acid challenge measured after 5 mins for 20 mins; assay type: functional
Rattus norvegicus [13] = test: Antidiarrheal activity in Charles River rat assessed as inhibition of castor oil-induced diarrhea by measuring protected animals at 0.5 mg/kg, po administered for 5 days followed by 0.5 mg/kg, po on test day administered 1 hr prior to castor oil challenge measured after 1 hr relative to vehicle-treated control; assay type: functional
Rattus norvegicus [14] = test: Antisecretory activity in Sprague-Dawley rat assessed as decrease in pepsin output at 50 mg/kg, po administered 30 mins prior to pylorus ligation measured after 4 hrs relative to control; assay type: functional; design: scale not given: the % may be the effect or the level left
Rattus norvegicus [15] = test: Antihypertensive activity in spontaneously hypertensive rat model assessed as reduction in blood pressure at 0.3 mg/kg, po after 24 hrs; assay type: functional; design: scale not given: the % may be the effect or the level left
Rattus norvegicus [16] = test: Antisecretory activity in Sprague-Dawley rat assessed as decrease in volume at 50 mg/kg, po administered 30 mins prior to pylorus ligation measured after 4 hrs relative to control; assay type: functional; design: scale not given: the % may be the effect or the level left
Rattus norvegicus [17] = test: Antihypertensive activity in spontaneously hypertensive rat model assessed as reduction in blood pressure at 1 mg/kg, po after 24 hrs; assay type: functional; design: scale not given: the % may be the effect or the level left
Rattus norvegicus [18] = test: Antidiarrheal activity in Charles River rat assessed as inhibition of castor oil-induced diarrhea by measuring protected animals at 0.5 mg/kg, po administered for 2 days followed by 1 mg/kg, po on test day administered 1 hr prior to castor oil challenge measured after 1 hr relative to vehicle-treated control; assay type: functional
Rattus norvegicus [19] = test: Antidiarrheal activity in Charles River rat assessed as inhibition of castor oil-induced diarrhea by measuring protected animals at 0.5 mg/kg, po administered for 2 days followed by 0.5 mg/kg, po on test day administered 1 hr prior to castor oil challenge measured after 1 hr relative to vehicle-treated control; assay type: functional
Rattus norvegicus [20] = test: Antidiarrheal activity in Charles River rat assessed as inhibition of castor oil-induced diarrhea by measuring protected animals at 0.2 mg/kg, po administered 1 hr prior to castor oil challenge measured after 1 hr relative to vehicle-treated control; assay type: functional
Rattus norvegicus [21] = test: Antihypertensive activity in spontaneously hypertensive rat model assessed as reduction in blood pressure at 0.3 mg/kg, po after 3 hrs; assay type: functional; design: scale not given: the % may be the effect or the level left
Rattus norvegicus [22] = test: Antipsychotic activity in rat assessed as reduction of methamphetamine-induced hyperactivity at 0.5 mg/kg, po administered prior to methamphetamine challenge relative to vehicle-treated control; assay type: functional; design: scale not given: the % may be the effect or the level left
Rattus norvegicus [23] = test: Antidiarrheal activity in Charles River rat assessed as inhibition of castor oil-induced diarrhea by measuring protected animals at 0.2 mg/kg, po administered for 5 days followed by 0.2 mg/kg, po on test day administered 1 hr prior to castor oil challenge measured after 1 hr relative to vehicle-treated control; assay type: functional
Rattus norvegicus [24] = organism: Rattus norvegicus; test: animal or person; assay type: functional; details: Charles River, route oral
Description: Antidiarrheal activity in Charles River rat assessed as inhibition of castor oil-induced diarrhea by measuring protected animals at 0.5 mg/kg, po administered 1 hr prior to castor oil challenge measured after 1 hr relative to vehicle-treated control

Rattus norvegicus [25] = organism: Rattus norvegicus; test: animal or person; details: Charles River, po, read-out: INH
Description: Antidiarrheal activity in Charles River rat assessed as inhibition of castor oil-induced diarrhea by measuring protected animals at 2 mg/kg, po administered 1 hr prior to castor oil challenge measured after 1 hr relative to vehicle-treated control

Rattus norvegicus [26] = organism: Rattus norvegicus; test: animal or person; assay type: functional; details: Charles River, route oral; remark: listed apart in the source
Description: Antidiarrheal activity in Charles River rat assessed as inhibition of castor oil-induced diarrhea by measuring protected animals at 1 mg/kg, po administered 1 hr prior to castor oil challenge measured after 1 hr relative to vehicle-treated control

Rattus norvegicus [27] = test: Antihypertensive activity in spontaneously hypertensive rat model assessed as reduction in blood pressure at 5 mg/kg, po after 24 hrs; assay type: functional; design: scale not given: the % may be the effect or the level left
Rattus norvegicus [28] = test: Antidiarrheal activity in Charles River rat assessed as inhibition of castor oil-induced diarrhea by measuring protected animals at 0.8 mg/kg, po administered 1 hr prior to castor oil challenge measured after 1 hr relative to vehicle-treated control; assay type: functional
Mus musculus [29] = test: Antianxiety activity in albino BALB/cJ mouse assessed as reduction in footshock-induced fighting behavior at 10 mg/kg, po after 30 to 90 mins; assay type: functional; design: scale not given: the % may be the effect or the level left
Felis catus [30] = test: Hypnotic activity in cat assessed as increase in total sleep time at 0.5 mg/kg administered orally through diet measured for 12 hrs by EEG analysis; assay type: functional; details: route oral
Rattus norvegicus [31] = test: Antianxiety activity in Long-Evans rat assessed as reduction in motor activity at 1 mg/kg, po after 2 hrs relative to vehicle-treated control; assay type: functional; design: scale not given: the % may be the effect or the level left
Rattus norvegicus [32] = test: Antidiarrheal activity in Charles River rat assessed as inhibition of castor oil-induced diarrhea by measuring protected animals at 0.4 mg/kg, po administered 1 hr prior to castor oil challenge measured after 1 hr relative to vehicle-treated control; assay type: functional
Rattus norvegicus [33] = test: Antipsychotic activity in rat assessed as reduction of methamphetamine-induced hyperactivity at 2.5 mg/kg, po administered prior to methamphetamine challenge relative to vehicle-treated control; assay type: functional; design: scale not given: the % may be the effect or the level left
Rattus norvegicus [34] = test: Analgesic activity in po dosed Sprague-Dawley rat after 15 to 90 mins by tail flick test; assay type: functional
Rhesus monkey = test: Antianxiety activity in po dosed rhesus monkey assessed as antiagressive behavior measured every hour post dosing; assay type: functional; details: Macaca mulatta, read-out: MED
Rattus norvegicus [35] = test: Antihypertensive activity in spontaneously hypertensive rat model assessed as reduction in blood pressure at 5 mg/kg, po after 3 hrs; assay type: functional; design: scale not given: the % may be the effect or the level left
Felis catus [36] = test: Hypnotic activity in cat assessed as increase in non-REM sleep time at 0.5 mg/kg administered orally through diet measured for 12 hrs by EEG analysis; assay type: functional; details: route oral
Rattus norvegicus [37] = test: Antianxiety activity in Long-Evans rat assessed as reduction in motor activity at 10 mg/kg, po after 2 hrs relative to vehicle-treated control; assay type: functional; design: scale not given: the % may be the effect or the level left
Mus musculus [38] = test: Anticonvulsant activity in po dosed mouse assessed as dose required to protect 80% of animal measured after 1 to 4 hrs by audiogenic seizure test; assay type: functional
Felis catus [39] = test: Hypnotic activity in cat assessed as decrease in non-REM sleep time at 0.5 mg/kg administered orally through diet measured for 12 hrs by EEG analysis; assay type: functional; details: route oral
Mus musculus [40] = test: Antidepressant activity in po dosed mouse assessed as potentiation of DOPA-induced effect administered 4 hrs prior to DOPA challenge; assay type: functional; details: read-out: MED
Felis catus [41] = test: Hypnotic activity in cat assessed as increase in total sleep time at 2 mg/kg administered orally through diet measured for 12 hrs by EEG analysis; assay type: functional; details: route oral
Felis catus [42] = test: Hypnotic activity in cat assessed as decrease in total sleep time at 0.5 mg/kg administered orally through diet measured for 12 hrs by EEG analysis; assay type: functional; details: route oral
Mus musculus [43] = test: Antianxiety activity in albino BALB/cJ mouse assessed as reduction in footshock-induced fighting behavior at 1 mg/kg, po after 30 to 90 mins; assay type: functional; design: scale not given: the % may be the effect or the level left
Mus musculus [44] = test: Increase in footshock-induced fighting behavior in albino BALB/cJ mouse at 10 mg/kg, po after 30 to 90 mins; assay type: functional
Felis catus [45] = test: Hypnotic activity in cat assessed as increase in non-REM sleep time at 2 mg/kg administered orally through diet measured for 12 hrs by EEG analysis; assay type: functional; details: route oral

SMILES	Activity (Rattus norvegicus [1])	inhibition in vivo at 0.1 mg/kg (Rattus norvegicus [2])	Activity (Rattus norvegicus [3])	LD50 [5]	Activity (Rattus norvegicus [6])	minimal effective dose (Canis familiaris)	Activity (Rattus norvegicus [7])	Activity (Rattus norvegicus [8])	Activity (Rattus norvegicus [9])	Activity (Mus musculus [10])	inhibition in vivo at 0.05 mg/kg (Rattus norvegicus [11])	ED50 (Mus musculus [12])	Activity (Rattus norvegicus [14])	Activity (Rattus norvegicus [15])	Activity (Rattus norvegicus [16])	inhibition (INH) (Rattus norvegicus [18])	inhibition in vivo at 0.5 mg/kg (Rattus norvegicus [19])	Activity (Rattus norvegicus [21])	Activity (Rattus norvegicus [22])	inhibition in vivo at 0.5 mg/kg (Rattus norvegicus [24])	also measured
CC1CCC2=C(C1)c1c(O)cc(C(C)C(C)CCc3ccc(F)cc3)cc1OC2(C)C (centres undefined)	62%	60%	13.4%	750 mg/kg	53.1%	1 mg/kg	20.8%	89%	66%	0%	40%	4.5 mg/kg	56.4%	10%	45.6%	0%	0.5%	13%	58%		Activity (Rattus norvegicus [4]): 27%; inhibition in vivo at 0.5 mg/kg (Rattus norvegicus [13]): 0%; Activity (Rattus norvegicus [17]): 12%; inhibition in vivo at 0.2 mg/kg (Rattus norvegicus [20]): 90%
CCOC(=O)C1(c2ccccc2)CCN(CCC(C#N)(c2ccccc2)c2ccccc2)CC1 [DIPHENOXYLATE]																					inhibition in vivo at 0.2 mg/kg (Rattus norvegicus [23]): 90%
CN1CC[C@]23c4c5ccc(O)c4O[C@H]2[C@@H](O)C=C[C@H]3[C@H]1C5																				0%	inhibition in vivo at 2 mg/kg (Rattus norvegicus [25]): 50%; inhibition in vivo at 1 mg/kg (Rattus norvegicus [26]): 30%
CC1CCC2=C(C1)c1c(OC(=O)CCCN3CCCCC3)cc(C(C)CCCc3ccc(F)cc3)cc1OC2(C)C.Cl (centres undefined)		10%		≥ 1000 mg/kg		0.2 mg/kg		75%	72%			1.76 mg/kg									Activity (Rattus norvegicus [27]): 19%; inhibition in vivo at 0.8 mg/kg (Rattus norvegicus [28]): 90%; Activity (Mus musculus [29]): 73%; Time (Felis catus [30]): 50 min; Activity (Rattus norvegicus [31]): 38%; inhibition in vivo at 0.4 mg/kg (Rattus norvegicus [32]): 70%; Activity (Rattus norvegicus [33]): 50%; ED50 (Rattus norvegicus [34]): 1.46 mg/kg; minimal effective dose (Rhesus monkey): 1 mg/kg; Activity (Rattus norvegicus [35]): 25%; Time (Felis catus [36]): 73 min; Activity (Rattus norvegicus [37]): 95%
CC1CCC2=C(C1)c1c(O)cc(C(C)CCCc3ccc(F)cc3)cc1OC2(C)C (centres undefined)	70%	50%	7.8%	≥ 1000 mg/kg	39.6%	0.5 mg/kg	11.4%		90%	92%	0%	8.3 mg/kg	43.7%	12%	35.5%	0%	0%	31%	30%	70%	Activity (Mus musculus [38]): 30 mg/kg; Time (Felis catus [39]): -4 min; minimal effective dose (Mus musculus [40]): 10 mg/kg; Time (Felis catus [41]): 126 min; Time (Felis catus [42]): -22 min; Activity (Mus musculus [43]): 60%; ED50 (Rattus norvegicus [34]): 5.9 mg/kg; minimal effective dose (Rhesus monkey): 0.1 mg/kg; Activity (Mus musculus [44]): 26%; Time (Felis catus [45]): 94 min
